Laboratory results taken from ChEMBL document CHEMBL1201862, “PubChem BioAssay data set” (2004).
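Briefly, cells in 96-well plates were exposed to five compound concentrations for 48 h, and endpoints were estimated by linear interpolation. Abbreviation: GI50, concentration required for 50% inhibition of growth.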 The source made the active and inactive calls. Rule as the data show it: active = GI50 up to about 1.1 µM and inactive = higher.

Tests used:
Assay in all cases: DTP human tumour cell line panel, 48 h
HT-29 = system: HT-29
KM-20L2 = system: KM-20L2
LOX IMVI = system: LOX IMVI
MOLT-4 = system: MOLT-4
NCI-H460 = system: NCI-H460
NCI-H522 = system: NCI-H522
OVCAR-4 = system: OVCAR-4
OVCAR-5 = system: OVCAR-5
SN12C = system: SN12C
SNB-75 = system: SNB-75
UACC-257 = system: UACC-257
A498 = system: A498
COLO 205 = system: COLO 205
DMS-114 = system: DMS-114
SF-268 = system: SF-268
BT-549 = system: BT-549
DU-145 = system: DU-145
MDA-MB-231 = system: MDA-MB-231
MDA-MB-435 = system: MDA-MB-435
NCI-H226 = system: NCI-H226

Structure (SMILES) | GI50 (HT-29) | GI50 (KM-20L2) | GI50 (LOX IMVI) | GI50 (MOLT-4) | GI50 (NCI-H460) | GI50 (NCI-H522) | GI50 (OVCAR-4) | GI50 (OVCAR-5) | GI50 (SN12C) | GI50 (SNB-75) | GI50 (UACC-257) | GI50 (A498) | GI50 (COLO 205) | GI50 (DMS-114) | GI50 (SF-268) | GI50 (BT-549) | GI50 (DU-145) | GI50 (MDA-MB-231) | GI50 (MDA-MB-435) | GI50 (NCI-H226)
COC1CCC(O)C(CO)O1 (stereo not drawn) | > 100 µM (inactive) | > 100 µM (inactive) | 23.3 µM (inactive) | 27.6 µM (inactive) | > 100 µM (inactive) | 13.4 µM (inactive) | > 100 µM (inactive) | > 100 µM (inactive) | > 100 µM (inactive) | > 100 µM (inactive) | 37.4 µM (inactive) | – | – | – | – | – | – | – | – | –
O=C(O)C12CCCC(CCC1)C2 | > 100 µM (inactive) | – | > 100 µM (inactive) | > 100 µM (inactive) | > 100 µM (inactive) | > 100 µM (inactive) | > 100 µM (inactive) | > 100 µM (inactive) | > 100 µM (inactive) | > 100 µM (inactive) | > 100 µM (inactive) | > 100 µM (inactive) | > 100 µM (inactive) | > 100 µM (inactive) | > 100 µM (inactive) | – | – | – | – | –
CSc1nc(Cl)c2c(n1)Sc1ncnn1C2O (stereo not drawn) | 12.9 µM (inactive) | – | 6.37 µM (inactive) | 6.7 µM (inactive) | 21 µM (inactive) | 2.43 µM (inactive) | 15 µM (inactive) | 17.7 µM (inactive) | 11 µM (inactive) | – | 19.5 µM (inactive) | 20 µM (inactive) | 0.843 µM (active) | – | 6.61 µM (inactive) | 11.4 µM (inactive) | 7.08 µM (inactive) | 16.1 µM (inactive) | 4.57 µM (inactive) | –
CC(C)(C)[Si](C)(C)OCC1OC(n2cnc3c(N)ncnc32)CC1O (stereo not drawn) | > 100 µM (inactive) | – | > 100 µM (inactive) | 16.1 µM (inactive) | 97.5 µM (inactive) | – | 71.4 µM (inactive) | 60.8 µM (inactive) | > 100 µM (inactive) | > 100 µM (inactive) | > 100 µM (inactive) | 81.8 µM (inactive) | 91.6 µM (inactive) | – | – | 32.7 µM (inactive) | 95.5 µM (inactive) | 52.5 µM (inactive) | > 100 µM (inactive) | 53.1 µM (inactive)
Cc1ccc2c(c1)C(=O)N(N(C)C)CC(=O)N2 | > 100 µM (inactive) | – | > 100 µM (inactive) | > 100 µM (inactive) | > 100 µM (inactive) | > 100 µM (inactive) | > 100 µM (inactive) | > 100 µM (inactive) | – | 35.2 µM (inactive) | > 100 µM (inactive) | > 100 µM (inactive) | > 100 µM (inactive) | > 100 µM (inactive) | > 100 µM (inactive) | – | – | – | – | > 100 µM (inactive)
C[n+]1c(-c2ccc(/C=N/Nc3n[nH]c(=S)n3N/N=C/c3ccc(-c4cn5ccccc5[n+]4C)cc3)cc2)cn2ccccc21 | > 100 µM (inactive) | – | – | > 100 µM (inactive) | > 100 µM (inactive) | > 100 µM (inactive) | > 100 µM (inactive) | > 100 µM (inactive) | > 100 µM (inactive) | > 100 µM (inactive) | > 100 µM (inactive) | – | > 100 µM (inactive) | – | > 100 µM (inactive) | – | – | > 100 µM (inactive) | > 100 µM (inactive) | –
COc1cc2c(cc1OC)CCN=C2 | > 100 µM (inactive) | – | > 100 µM (inactive) | > 100 µM (inactive) | 66.5 µM (inactive) | – | > 100 µM (inactive) | > 100 µM (inactive) | > 100 µM (inactive) | > 100 µM (inactive) | > 100 µM (inactive) | > 100 µM (inactive) | > 100 µM (inactive) | – | – | > 100 µM (inactive) | > 100 µM (inactive) | > 100 µM (inactive) | > 100 µM (inactive) | > 100 µM (inactive)
Cc1cc(=O)n2nc(CSc3nnc(S)s3)sc2n1 | > 100 µM (inactive) | – | > 100 µM (inactive) | > 100 µM (inactive) | > 100 µM (inactive) | > 100 µM (inactive) | > 100 µM (inactive) | > 100 µM (inactive) | > 100 µM (inactive) | > 100 µM (inactive) | > 100 µM (inactive) | – | > 100 µM (inactive) | – | > 100 µM (inactive) | > 100 µM (inactive) | > 100 µM (inactive) | > 100 µM (inactive) | > 100 µM (inactive) | > 100 µM (inactive)
NC(Cc1ccc(OCc2ccccc2)cc1)C(=O)NC(Cc1ccccc1)C(=O)Oc1c(Cl)c(Cl)c(Cl)c(Cl)c1Cl (stereo not drawn) | 17.5 µM (inactive) | – | 14 µM (inactive) | 39.2 µM (inactive) | 14.7 µM (inactive) | 23.1 µM (inactive) | 17.4 µM (inactive) | 15.6 µM (inactive) | 17.3 µM (inactive) | 15.7 µM (inactive) | 15.9 µM (inactive) | 20.9 µM (inactive) | 14.6 µM (inactive) | – | 20.3 µM (inactive) | 17.5 µM (inactive) | 12.8 µM (inactive) | 13 µM (inactive) | 18.3 µM (inactive) | 13.2 µM (inactive)
CNC(=O)CNC(=O)CCC(=O)N(C)C | > 100 µM (inactive) | – | > 100 µM (inactive) | > 100 µM (inactive) | > 100 µM (inactive) | > 100 µM (inactive) | – | > 100 µM (inactive) | > 100 µM (inactive) | > 100 µM (inactive) | > 100 µM (inactive) | > 100 µM (inactive) | > 100 µM (inactive) | – | > 100 µM (inactive) | > 100 µM (inactive) | > 100 µM (inactive) | > 100 µM (inactive) | > 100 µM (inactive) | > 100 µM (inactive)
[O-][n+]1c2c([n+]([O-])c3ccccc31)-c1cccc3cccc-2c13 | > 100 µM (inactive) | – | 63 µM (inactive) | > 100 µM (inactive) | 91.2 µM (inactive) | 65.9 µM (inactive) | > 100 µM (inactive) | – | > 100 µM (inactive) | 18.4 µM (inactive) | > 100 µM (inactive) | > 100 µM (inactive) | > 100 µM (inactive) | – | 29 µM (inactive) | – | > 100 µM (inactive) | 33 µM (inactive) | > 100 µM (inactive) | > 100 µM (inactive)
CCCCC(=O)c1c(O)nc2sccn2c1=O | > 10 µM (inactive) | – | > 10 µM (inactive) | > 10 µM (inactive) | > 10 µM (inactive) | > 10 µM (inactive) | > 10 µM (inactive) | > 10 µM (inactive) | > 10 µM (inactive) | > 10 µM (inactive) | – | > 10 µM (inactive) | > 10 µM (inactive) | – | > 10 µM (inactive) | – | > 10 µM (inactive) | > 10 µM (inactive) | > 10 µM (inactive) | > 10 µM (inactive)
O=C1C(=Cc2cccc(O)c2)N=C(c2ccccc2)N1n1c(-c2ccccc2)nc2ccccc2c1=O | 32.6 µM (inactive) | – | 23.4 µM (inactive) | 15.9 µM (inactive) | 23.6 µM (inactive) | 17.1 µM (inactive) | 29.6 µM (inactive) | 37.1 µM (inactive) | 34.1 µM (inactive) | – | 29 µM (inactive) | 34.7 µM (inactive) | 31.4 µM (inactive) | – | 25 µM (inactive) | – | 27.7 µM (inactive) | 36.9 µM (inactive) | 35.6 µM (inactive) | 0.48 µM (active)
CCCCn1/c(=N/C(=S)N(C)C)ss/c1=N\C(=S)N(C)C | > 100 µM (inactive) | > 100 µM (inactive) | > 100 µM (inactive) | > 100 µM (inactive) | > 100 µM (inactive) | – | > 100 µM (inactive) | > 100 µM (inactive) | > 100 µM (inactive) | > 100 µM (inactive) | > 100 µM (inactive) | > 100 µM (inactive) | – | – | > 100 µM (inactive) | – | – | – | – | 7.28 µM (inactive)
Nc1nc(Cl)nc2c1ncn2C1CCC(CO)O1 (stereo not drawn) | > 100 µM (inactive) | – | > 100 µM (inactive) | 35.2 µM (inactive) | > 100 µM (inactive) | – | > 100 µM (inactive) | > 100 µM (inactive) | 95.7 µM (inactive) | > 100 µM (inactive) | > 100 µM (inactive) | > 100 µM (inactive) | > 100 µM (inactive) | – | – | > 100 µM (inactive) | > 100 µM (inactive) | – | > 100 µM (inactive) | > 100 µM (inactive)
CN(C)C(=O)OCOC(=O)N(C)C | > 100 µM (inactive) | > 100 µM (inactive) | > 100 µM (inactive) | > 100 µM (inactive) | > 100 µM (inactive) | > 100 µM (inactive) | > 100 µM (inactive) | > 100 µM (inactive) | > 100 µM (inactive) | > 82.8 µM (inactive) | – | > 100 µM (inactive) | > 100 µM (inactive) | > 100 µM (inactive) | > 100 µM (inactive) | – | – | – | – | > 100 µM (inactive)
COc1ccc(C2CC(c3c(O)ccc4ccccc34)=NN2)cc1OC (stereo not drawn) | 1.89 µM (inactive) | – | – | 2.24 µM (inactive) | 2.92 µM (inactive) | 1.82 µM (inactive) | 6.03 µM (inactive) | 3.9 µM (inactive) | 4.32 µM (inactive) | 1.22 µM (inactive) | 6.81 µM (inactive) | 18.5 µM (inactive) | 6.12 µM (inactive) | – | 2.87 µM (inactive) | 3.92 µM (inactive) | 5.71 µM (inactive) | 9.79 µM (inactive) | 2.96 µM (inactive) | 2.54 µM (inactive)
CC(C)(C)c1cc(O)ccc1O [E319] | > 100 µM (inactive) | – | > 59.3 µM (inactive) | 10.3 µM (inactive) | > 12.8 µM (inactive) | 5.57 µM (inactive) | > 56.4 µM (inactive) | > 100 µM (inactive) | > 100 µM (inactive) | 7.71 µM (inactive) | 9.08 µM (inactive) | > 100 µM (inactive) | > 74.6 µM (inactive) | – | > 18.7 µM (inactive) | > 100 µM (inactive) | 10.1 µM (inactive) | 1.86 µM (inactive) | > 56.8 µM (inactive) | > 65.5 µM (inactive)
